These results are taken from PubChem BioAssay (NCI).

Test systems include A498 renal; CAKI-1 renal; COLO 205 colon; HCC-2998 colon; HCT-15 colon; KM12 colon; M14 melanoma; SNB-75 CNS; SR leukemia.
What all share (assay): DTP human tumour cell line panel, 48 h

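Protocol summary: plate cells (96-well), add compound at 5 concentrations, incubate 48 h, interpolate endpoints linearly. At the GI50, growth is halved. TGI: concentration producing complete growth inhibition.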

For orientation: TGI means the concentration giving total growth inhibition. A higher TGI goes with less potent growth arrest. In the case of `O=C1C=C(Nc2ccc(S(=O)(=O)Nc3ncccn3)cc2)c2ccccc2C1=O`, the TGI in the assay with A498 renal amounted to 69.4 µM; in the assay on CAKI-1 renal it was 89.1 µM; in the assay with COLO 205 colon, 39.4 µM; with HCC-2998 colon, 36.6 µM; in the assay with HCT-15 colon, 47 µM; in the assay on KM12 colon, 38.6 µM. For the same molecule, the TGI in the assay with M14 melanoma came to 34.1 µM; with SNB-75 CNS, 59.4 µM; with SR leukemia, 95.9 µM.

Consider `CCCCCCCCCCOC(=O)c1cc[n+](C)cc1`, for which the TGI in the assay on A498 renal came to 36.9 µM; in the assay on CAKI-1 renal it was 30.4 µM; in the assay on COLO 205 colon, 30.3 µM; with HCT-15 colon, 29.5 µM; in the assay with KM12 colon it was 31.3 µM; in the assay with M14 melanoma, 32.2 µM. In addition, the TGI amounted to 34.3 µM in the assay with SNB-75 CNS and 32.7 µM in the assay on SR leukemia.

Take `C/C(CC(=O)Nc1ccc(NC(=O)C/C(C)=N\NC(N)=O)cc1)=N/NC(N)=O`: the TGI was above 100 µM in the assay on A498 renal; above 100 µM in the assay on CAKI-1 renal; above 79.7 µM in the assay on COLO 205 colon; above 100 µM in the assay with HCC-2998 colon; above 62.5 µM with HCT-15 colon; above 100 µM with KM12 colon. The TGI in the assay on M14 melanoma is above 100 µM; with SNB-75 CNS, above 100 µM; in the assay on SR leukemia it was above 62.5 µM.

In the case of `COc1cc(C2c3cc4c(cc3[C@@H](N(C)c3ccc(N(C)C)cc3)C3COC(=O)C23)OCO4)cc(OC)c1O` (some centres undefined), the TGI with A498 renal was above 100 µM; in the assay on CAKI-1 renal, 25 µM; in the assay on COLO 205 colon, 4.23 µM; in the assay on HCC-2998 colon, 20.8 µM; in the assay with HCT-15 colon it was 25.7 µM; in the assay on KM12 colon it was 21.5 µM. Moreover, the TGI in the assay on M14 melanoma amounted to 14.5 µM; with SNB-75 CNS, 42.3 µM; in the assay on SR leukemia it was 44.2 µM.

On to `CCN(CC)c1ccc(N=Nc2ccc(-c3nc4cccn(C)c-4n3)cc2)cc1`, for which the TGI came to 28.3 µM in the assay on A498 renal; 41.5 µM in the assay with CAKI-1 renal; 27.9 µM with COLO 205 colon; 21 µM in the assay on HCT-15 colon; 24.9 µM in the assay on KM12 colon; 24.4 µM in the assay with M14 melanoma. In addition, the total growth inhibition concentration (TGI) amounted to 38.9 µM in the assay with SNB-75 CNS and 14.8 µM in the assay with SR leukemia.

In the case of `COC(=O)CC(C(C(C)=O)C(=O)OCc1ccccc1)N1C(=O)OC(c2ccccc2)C1c1ccccc1` (centres undefined), the TGI with CAKI-1 renal, with COLO 205 colon, with HCC-2998 colon, with HCT-15 colon, in the assay with KM12 colon and in the assay with SR leukemia was above 100 µM throughout.

As for `C1CC2=C(C1)C1=S(S2)SC2=C1CCC2`, the TGI with A498 renal was 87.4 µM; with CAKI-1 renal, above 100 µM; with COLO 205 colon, above 100 µM; in the assay on HCC-2998 colon, above 100 µM; in the assay on HCT-15 colon, above 100 µM; with KM12 colon it was above 100 µM. Further, the TGI in the assay on M14 melanoma and in the assay on SNB-75 CNS was above 100 µM throughout.

By GI50 is commonly meant the concentration that inhibits growth by half. Take `CCC[CH2][Sn]([CH2]CCC)([O]C(=O)c1cccc(F)c1F)[O]C(=O)c1cccc(F)c1F`: the GI50 in the assay with A498 renal was 1.15 µM; in the assay on COLO 205 colon it was 0.962 µM; with HCC-2998 colon, 1.63 µM; in the assay on HCT-15 colon it was 1.25 µM; with KM12 colon it was 1.52 µM; with M14 melanoma it was 1.4 µM. Also, the GI50 with SNB-75 CNS was 0.874 µM; with SR leukemia, 0.371 µM. Besides, the TGI is 2.39 µM in the assay with A498 renal; 2.13 µM in the assay on COLO 205 colon; 2.98 µM in the assay on HCC-2998 colon; 2.51 µM with HCT-15 colon; 2.85 µM in the assay with KM12 colon; 2.77 µM with M14 melanoma. Besides, the values for the TGI in the assay with SNB-75 CNS and with SR leukemia were 2.1 µM and 3.49 µM, respectively.

On to `CC1=C(C(=O)Nc2ccccc2)C(c2cc(Cl)cc(Cl)c2)C(C(=O)Nc2ccccc2)=C(C)N1`, for which the TGI is 43.1 µM with A498 renal; 31.6 µM in the assay on CAKI-1 renal; 31 µM with COLO 205 colon; 25.7 µM with HCC-2998 colon; 18.6 µM in the assay with HCT-15 colon; 16.8 µM with KM12 colon. For the same molecule, the values for the TGI with M14 melanoma, with SNB-75 CNS and in the assay on SR leukemia were 27.8 µM, 34 µM and 12.6 µM, respectively.

Turning to `C/C(O)=C(\N=O)C(=O)NCc1ccccc1`, the TGI in the assay on A498 renal, in the assay with CAKI-1 renal, in the assay with COLO 205 colon, in the assay on HCC-2998 colon, in the assay on HCT-15 colon and with KM12 colon was above 100 µM in each case. Moreover, the TGI with SNB-75 CNS and in the assay with SR leukemia was above 100 µM in each case.

Regarding `O=C([CH-]C(=O)c1ccccc1)c1ccccc1.O=C([CH-]C(=O)c1ccccc1)c1ccccc1.O=C([CH-]C(=O)c1ccccc1)c1ccccc1.[Cl-].[Zr+4]`, the GI50 with A498 renal is 18.7 µM; with CAKI-1 renal, 12.4 µM; in the assay on COLO 205 colon, 25.7 µM; in the assay on HCT-15 colon it was 18.2 µM; in the assay with KM12 colon, 12.4 µM; in the assay on M14 melanoma, 12.6 µM. In addition, the GI50 in the assay with SNB-75 CNS is 3.34 µM. Moreover, the TGI in the assay with A498 renal is 58.6 µM; in the assay with CAKI-1 renal, 63.8 µM; in the assay on COLO 205 colon, 78 µM; with HCT-15 colon, above 100 µM; in the assay on KM12 colon it was 56.6 µM; in the assay with M14 melanoma, 39 µM. The same molecule registered a TGI in the assay with SNB-75 CNS of 30.1 µM.

Take `C=C(CO)CC(/C=C(\C)CC/C=C(\C)CCl)OC(C)=O` (centres undefined): the TGI with A498 renal, with COLO 205 colon, in the assay with HCC-2998 colon, in the assay with HCT-15 colon, with KM12 colon and in the assay with M14 melanoma was above 100 µM each time. In the assay with SNB-75 CNS, this molecule came in with a TGI above 100 µM.

For the molecule `COc1ccc2c(c1)[n+](=O)c(C(=O)CC(=O)C(=O)Nc1cccc(C)c1C)c(C)n2[O-]`, the TGI in the assay on CAKI-1 renal, in the assay on HCC-2998 colon, in the assay with HCT-15 colon, with KM12 colon, with M14 melanoma and in the assay on SR leukemia was above 100 µM each time.

In the case of `CC12OC(C(=O)C13CCC3)C1C(=O)c3ccc4c(ccc5ccccc54)c3C(=O)C12` (centres undefined), the GI50 with A498 renal was 8.74 µM; in the assay on CAKI-1 renal, 1.42 µM; in the assay on COLO 205 colon it was 11.2 µM; with HCT-15 colon it was 4.27 µM; with M14 melanoma, 14.5 µM; in the assay on SNB-75 CNS, 18.1 µM. The TGI came out at 29.6 µM with A498 renal; 12.7 µM in the assay with CAKI-1 renal; 33.1 µM with COLO 205 colon; 22.4 µM with HCT-15 colon; 45.4 µM in the assay with M14 melanoma; 37.7 µM with SNB-75 CNS.
